Experimental data as given in patent US20120045483A1, “Mannitol and/or Proline for Prevention and Treatment of Ageing Related Symptoms” (ERASMUS MC, priority 2006, published 2012).
Where two headings read alike, the source gives them in different places.

How the values were obtained:
[1] = tested on: Csb^G744ter/G744ter/Xpa^null/null double mutant mice; assay type: in vivo, mouse; conditions: for Positive results as with mannitol and/or proline: tested under similar conditions; for Clearance from the tissues and bloodstream of treated subjects: higher single dose administrations; for Effectiveness of higher single dose administrations: versus low constant source
Excerpt: Additionally these animals have an enhanced photoreceptor cell loss. The accumulation of oxidative DNA damage before and immediately after birth presumably negatively influences transcription and causes the premature ageing phenotype.
In order to investigate the effect of radical scavengers on the CSB/XPA double knockout mice, the effect of several compounds and compositions was monitored by the frequency of CSB/XPA DKO mice (closer to the expected mendelian frequency of 25%), an extended life-span (longer than the average three weeks for untreated DKO mice) and a delay or to some extent inhibit the premature ageing phenotype.
To obtain CSB/XPA double mutant mice the following crossing were done:
From these crossings CSB^−/−XPA^−/− mice were born with a frequency of 9%, whereas the expected Mendelian frequency is 25%.
The offspring were genotyped following normal procedures (tail clipping and genomic DNA analysis by Southern blot analysis or PCR amplification) and monitored for life span.

[2] = Serum mannitol concentration in CSB mice with osmotic pump; assay type: in vivo; conditions: mouse, sc, subcutaneous osmotic pump (200 μl), read-out: Serum [mannitol] after 3 weeks
Description: The sample is further precipitated using acetonitrile and centrifuged. […] The organic layer is isolated and evaporated to dryness. The residue is dissolved in injection solvent and injected.
21 CSB animals, age 6 months, received an osmotic pump, 7×30 mm (volume 200 μl), subcutaneously implanted under the skin on the back, for continuous release of Phosphate Buffered Saline (control), 0.3M D-Mannitol or 0.03M D-Mannitol dissolved in Phosphate Buffered Saline, 7 animals per compound. To determine the actual D-Mannitol concentration in the blood of these animals, blood samples were taken every 7 days after the implantation of the osmotic pump. After three weeks, eyes were isolated from these animals and TUNEL staining was performed to determine the effect of D-Mannitol on diminishing the age-related photoreceptor-loss in CSB animals, Blood and urine samples were taken for measurements of D-mannitol levels and for determination of biomarkers. In a second experiment, the D-Mannitol treatment via osmotic pumps were repeated, but here on 8 week-old CSB mice were γ-irradiated, in order to see if D-mannitol can reduce the γ-induced photoreceptor-loss observed in CSB mice.

CSB mice [3] = assay: Age-related photoreceptor loss in CSB mice, TUNEL staining of the retina, without radiation; assay type: in vivo, mouse; conditions: for Apoptotic index without radiation (number of TUNEL-positive cells): osmotic pump, 3 weeks, CSB mice age 6 months
Description: (§1) CSB mice have accelerated aging-related photoreceptor loss. […] The photoreceptor loss can also be induced in young adult CSB mice (8-10 weeks) with γ-irradiation (induces a.o. oxidative DNA damage). Since aging-related photoreceptor-loss is at least in part caused by unrepaired oxidative DNA damage, we are able to intervene with anti-oxidant or radical scavenger molecules, in particular with mannitol and/or proline. 21 CSB animals, age 6 months, received an osmotic pump, 7×30 mm (volume 200 μl), subcutaneously implanted under the skin on the back, for continuous release of Phosphate Buffered Saline (control), 0.3M D-Mannitol or 0.03M D-Mannitol dissolved in Phosphate Buffered Saline, 7 animals per compound. To determine the actual D-Mannitol concentration in the blood of these animals, blood samples were taken every 7 days after the implantation of the osmotic pump. After three weeks, eyes were isolated from these animals and TUNEL staining was performed to determine the effect of D-Mannitol on diminishing the age-related photoreceptor-loss in CSB animals, Blood and urine samples were taken for measurements of D-mannitol levels and for determination of biomarkers. In a second experiment, the D-Mannitol treatment via osmotic pumps were repeated, but here on 8 week-old CSB mice were γ-irradiated, in order to see if D-mannitol can reduce the γ-induced photoreceptor-loss observed in CSB mice. For retinal evaluation by TUNEL staining, eyes were marked nasally with Alcian blue (5% Alcian blue in 96% ethanol), enucleated, fixed in 4% paraformaldehyde in 0.1M phosphate buffer, washed in PBS and embedded in paraffin. Horizontal sections (5 μm thick) of the retina were cut and sections in the middle of the retina were selected by Alcian blue marking and proximity of the optic nerve. […] For quantification, the number of TUNEL-positive cells in the inner nuclear layer (INL) and outer nuclear layer (ONL) were counted in 6 whole sections per mouse.

CSB mice [4] = assay: γ-irradiation induced photoreceptor loss in CSB mice, TUNEL staining of the retina; assay type: in vivo, mouse; conditions: osmotic pump, 8 week-old CSB mice, γ-irradiated
Description: as §1, with “biomarkers.” for “biomarkers. In a second experiment, the D-Mannitol treatment via osmotic pumps were repeated, but here on 8 week-old CSB mice were γ-irradiated, in order to see if D-mannitol can reduce the γ-induced photoreceptor-loss observed in CSB mice. For retinal evaluation by TUNEL staining, eyes were marked nasally with Alcian blue (5% Alcian blue in 96% ethanol), enucleated, fixed in 4% paraformaldehyde in 0.1M phosphate buffer, washed in PBS and embedded in paraffin. Horizontal sections (5 μm thick) of the retina were cut and sections in the middle of the retina were selected by Alcian blue marking and proximity of the optic nerve.”, “mouse. […]” for “mouse.”

[5] = In vitro AOC (anti-oxidant capacity); conditions: effective concentrations between 0.1 μg/ml and 10 μg/ml as measured in the serum
Excerpt: The compositions of the invention may be of any type. […] Mannitol and proline in particular have well documented anti-oxidant properties.

[6] = Transmission of D-Mannitol and L-Proline from mother to pup, osmotic pump in pregnant wild type mice, LC-MS/MS levels; conditions: osmotic pump 200 μl, 0.3M alone or 0.2M each combined, 28 days, pregnant wild type mice (C57B1/6)
Description: The sample is further precipitated using acetonitrile and centrifuged.
(§2) The LLOQ (Lowest Limit of Quantitation) for proline is typically 0.250 μg/ml. […] The sample is further precipitated using acetonitrile and centrifuged. An aliquot of the supernatant is evaporated to dryness under a steam of nitrogen at 60° C., Milli-Q water is added and the preparation is vortexed. Methanol is subsequently added to the preparation and vortexed. Usually Milli-Q water and methanol are added in a ratio of 1/5. The preparation is centrifuged for 2 minutes at a speed of 4000 g or more. The obtained preparation is injected. The apparatus used for LC-MS/MS is API4000 LC-MS/MS.

[7] = 0.2M L-Proline via drinking water, one week, wt animals
Description: as §2
L-Proline was also measured in the blood and urine of four wt animals that received 0.2M L-Proline via their drinking water. As a control, four wt animals received just drinking water. The duration of this treatment was one week, after which one blood sample and one urine sample was taken.

[8] = 5% D-mannitol in PBS, osmotic pump in pregnant females

## vitamin E
[1]
  Positive results as with mannitol and/or proline: did not yield the positive results

## OC[C@@H](O)[C@@H](O)[C@H](O)[C@H](O)CO [Mannitol, hexane-1,2,3,4,5,6-hexyl]
[1]; 2% D-Mannitol administered to drinking water
  Frequency of birth and survival after birth of XPA/CSB double KO mice: Comparable results
[1]; [8]
  Frequency of birth of XPA/CSB double KO mice: increase in frequency of birth
  Survival after birth (life span) of XPA/CSB double KO mice: increase in survival after birth
[1]
  Clearance from the tissues and bloodstream of treated subjects: rapidly cleared
  Effectiveness of higher single dose administrations: less or even ineffective
[2]; 0.03 M (200 μl osmotic pump, continuous release), 0.03M D-Mannitol in PBS
  concentration at 3 weeks: 100 ± 30 ng/mL
[2]; 0.3 M (200 μl osmotic pump, continuous release), 0.3M D-Mannitol in PBS
  concentration at 3 weeks: 650 ± 180 ng/mL
CSB mice [3]; 0.03M D-Mannitol
  Apoptotic index without radiation (number of TUNEL-positive cells): 24.1 ± 6.8
CSB mice [3]; 0.3M D-Mannitol
  Apoptotic index without radiation (number of TUNEL-positive cells): 24.8 ± 6.0
CSB mice [3]; endogenous or exogenous (radiation induced) oxidative stress, CSB mice
  Change of the apoptotic index (photoreceptor loss): significant decrease
CSB mice [4]; 0.03M D-Mannitol
  Apoptotic index after radiation (number of TUNEL-positive cells): 29.5 ± 6.0
CSB mice [4]; 0.3M D-Mannitol
  Apoptotic index after radiation (number of TUNEL-positive cells): 28.9 ± 11.3
[5]
  AOC (anti-oxidant capacity) in vitro: no or negligible

## O=C1O[C@H]([C@@H](O)CO)C(O)=C1O [vitamin C]
[1]
  Positive results as with mannitol and/or proline: did not yield the positive results

## O=C(O)[C@@H]1CCCN1 [proline, L-Proline]
[1]
  Clearance from the tissues and bloodstream of treated subjects: rapidly cleared
  Effectiveness of higher single dose administrations: less or even ineffective
[1]; proline treatment
  Frequency of survival of DKO pups after birth: equally effective in increasing the frequency of survival
[6]
  Elevated levels in blood of mothers and pups, in milk or in whole embryo's: not detected
[7]
  L-Proline levels in the blood: no elevated levels
  L-Proline levels in the urine: High levels
[5]
  AOC (anti-oxidant capacity) in vitro: no or negligible
